Data reported in publication PMC10907358, “Identification of oleic acid as an endogenous ligand of GPR3” (Cell Research, 2024).
Entries after “also recorded” stand apart in the source; their conditions may differ.

What was measured:
[1] = target: T1, GPR3 (Homo sapiens, UniProt P46089); test: GloSensor cAMP assay in GPR3 stably expressing AD293 cell line (agonist mode); type: cell-based; settings: for maximum response: Table S2, relative cAMP level, at 500 μM (FA 12:0, 16:1, 18:0, OEA 18:1, OLM 18:1), 450 μM (FA 18:1), 400 μM (FA 16:0), 300 μM (FA 22:0, 18:2), 100 μM (FAME 18:0, FAEE 18:0, lysophospholipids), 3 μM (LTB4); for EC50: cAMP induction; for EC50 / cAMP induction activity (in words): GPR3 stably expressing AD293
T1 construct: expressed in transfected cells
Protocol: The GloSensor cAMP assay was performed according to the instructions of Promega. AD293 cells were split into 6-well plate (300,000 cells/mL) and then transfected with the pGloSensor™-22F cAMP plasmid and pcDNA3-GPR3 plasmid by Lipofectamine 2000, at a ratio of 2:1 (μL:μg). 24 h after transfection, cells were split into 96-well plate for another 24 h incubation. After removal of cell medium, 90 μL of 3% v/v (the GloSensor cAMP reagent vs serum-free medium) substrate was added into each well. After 2 h incubation at RT, background measurements were taken, and then 10 μL 10× stock compounds were added for the second measurements of ligand activation via EnVision 2105 (PerkinElmer). Relative cAMP level was calculated by the cAMP level after addition of ligand divided by the cAMP level before addition of ligand (basal level). Stock FAs (i.e., 10–50 mM) were solubilized in DMSO, then diluted in cell culture buffer to designated concentrations and sonicated to ensure that they were evenly distributed in the buffer before being added to cells.
AD293 cells were split into 6-well plate (300,000 cells/mL), and then transfected with the pGloSensor™-22F cAMP plasmid and the pcDNA6-GPR3-3× FLAG plasmid (WT receptor or the mutants, F120A^3.36, W260A^6.48, L283F^7.39, A201W^5.46, Y280A^7.36, H96A^2.60 and H96A^2.60/Y280A^7.36) by Lipofectamine 2000 at a ratio of 2:1 (μL:μg). Geneticin (2 mg/mL) and blasticidin (20 μg/mL) were used to select colonies that stably express both GPR3 and GloSensor 22F. The cell culture medium containing antibiotics was changed every 2 days till well-separated colonies appeared. Then individual single colony was picked by a small piece of sterilized filter paper soaked with trypsin and separately cultured in a single well of 24-well plate. At least 24 candidate colonies were selected for each mutant and WT. After several days of culture, each colony was triplicated. One of the triplicates was used for western blot analysis, another for the GloSensor cAMP assay, and the remaining one was stored for staining. The colonies with top scores in both expression (western blot) and functional assay were selected as the representative colonies for each mutant or WT for further analysis.

[2] = target: T2, GPR6 (Homo sapiens, UniProt P46095); test: GloSensor cAMP assay in GPR6 stably expressing AD293 cell line; type: cell-based; settings: lipid concentration 300 μM
T2 construct: FLAG; expressed in transfected cells

[3] = tested on: Gs/cAMP/PKA signaling in iBAT; test: Ex vivo iBAT of WT mice, p-PKA substrate immunoblot; type: cell-based, mouse; settings: WT iBAT at 4 °C; lipid 1 mM (OA also 5 mM), up to 4 h
Protocol: iBAT was isolated from C57BL/6N mice at 4-6 weeks old and cut into 10 mg pieces. […] Another group of iBAT pieces were incubated in DMEM medium at 4 °C, and treated with different doses of OA (0 mM, 1 mM, 5 mM) for 4 h. OA (Sigma, O1008) was dissolved in serum-free DMEM (Gibco, high glucose, 12100046) by using an ultrasonic cleaner at 40 °C for 10 min.

T1 sequence (P46089 whole entry): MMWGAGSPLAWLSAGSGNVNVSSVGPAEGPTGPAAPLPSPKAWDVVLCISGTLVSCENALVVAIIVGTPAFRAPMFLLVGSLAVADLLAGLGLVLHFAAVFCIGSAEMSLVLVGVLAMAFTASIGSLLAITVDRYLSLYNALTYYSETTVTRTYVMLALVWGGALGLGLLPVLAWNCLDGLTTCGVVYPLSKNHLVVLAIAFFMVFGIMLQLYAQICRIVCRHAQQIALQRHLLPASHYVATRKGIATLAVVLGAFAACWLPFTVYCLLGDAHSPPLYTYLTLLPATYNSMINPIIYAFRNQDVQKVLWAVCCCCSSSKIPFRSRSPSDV
T2 sequence (P46095 whole entry, species assumed): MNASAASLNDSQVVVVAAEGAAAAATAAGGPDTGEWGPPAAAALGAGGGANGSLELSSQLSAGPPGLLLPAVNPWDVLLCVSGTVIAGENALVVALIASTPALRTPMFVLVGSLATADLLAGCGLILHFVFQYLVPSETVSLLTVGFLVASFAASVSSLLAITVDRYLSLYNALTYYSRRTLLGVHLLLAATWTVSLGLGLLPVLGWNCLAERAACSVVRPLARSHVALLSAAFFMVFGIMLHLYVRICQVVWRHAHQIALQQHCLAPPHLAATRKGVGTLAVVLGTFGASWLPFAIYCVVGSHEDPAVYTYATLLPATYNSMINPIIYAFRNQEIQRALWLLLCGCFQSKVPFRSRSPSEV

| Compound | maximum response [1] | Emax compared to Emax of OA ([1]; cAMP assay) | EC50 [1] | Emax / receptor activation compared to PAL ([1]; cAMP assay) | GPR6 activation (in words) [2] | cAMP induction activity (in words) [1] | Gs/cAMP/PKA signaling (phosphorylation of PKA substrates) [3] |
| --- | --- | --- | --- | --- | --- | --- | --- |
| CCCCCCCC/C=C\CCCCCCCC(=O)NCCO [OEA, oleoylethanolamide] | 60.9 | half of the Emax of OA | 336 µM |  |  |  |  |
| CCCCCCCC/C=C\CCCCCCCC(N)=O [OLM, Oleamide] | 75.1 | half of the Emax of OA | 334 µM |  |  |  |  |
| CCCCCCCCCCCCCCCC(=O)O [PAL, palmitic acid] | 118.7 | slightly lower Emax than OA | 311 µM |  |  |  |  |
| CCCCCC/C=C\CCCCCCCC(=O)O [PML, palmitoleic acid] | 61.8 |  | 328 µM | half of the Emax of PAL; also recorded: substantially decreased receptor activation compared to PAL | strongly activated GPR6 |  |  |
| CCCCCCCCCCCCC/C=C/[C@@H](O)[C@@H](N)COP(=O)(O)O [S1P, sphingosine-1-phosphate] | 0.6 |  |  |  |  | none of the lysophospholipids that we tested exhibited cAMP induction activity |  |
| CCCCCCCCCCCCCCCCCC(=O)O [STE, stearic acid] | 44.8 | about 1/3 | 361 µM |  |  | weak activity | neither STE nor LIN induced Gs/cAMP/PKA signaling |
| LPA 16:0 | 0.5 |  |  |  |  | none of the lysophospholipids that we tested exhibited cAMP induction activity |  |
| LPA 18:1 | 0.5 |  |  |  |  | none of the lysophospholipids that we tested exhibited cAMP induction activity |  |
| LPC 14:0 | 1.8 |  |  |  |  | none of the lysophospholipids that we tested exhibited cAMP induction activity |  |
